In general, AC50 refers to the midpoint of the concentration-response curve, whichever way the signal moves.

Inconclusive results are not listed. The source made the active and inactive calls.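 How the source made its calls: active means sample lowering the cell viability signal whose fitted half-effect dose is at or below its top tested dose; inconclusive means flat fit with 30 to 70 percent loss, or poor fit; inactive means the rest, including effects in the wrong direction.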

System in the first assay: not listed separately
In words: HEK293T viability loss – cell-based, ATP luminescence, dry powder, Set6, cytotoxicity control, dose response (AID 743142). The conditions noted are these: HEK293T viability, ATP luminescence (CellTiter-Glo), 72 h; at 12 µM (top of the series). For orientation: In ATP-based viability assays light output follows the ATP content of the culture.
Consider `CC(NC(=O)CCNC(=O)c1ccc(Cl)cc1)c1ccc(F)cc1` (stereo unspecified), for which the activity change, negative = cytotoxicity is 41.6% (inactive).

Still in this assay, the particulars now being: HEK293T viability, ATP luminescence (CellTiter-Glo), 72 h; at 26 µM (top of the series).
As to `O=C(CCCNC(=O)c1ccc(Cl)cc1)N[C@@H]1CCCc2ccccc21`, the activity change, negative = cytotoxicity is 2.4% (inactive).
Consider `O=C(CNC(=O)c1ccc(OC(F)(F)F)cc1)N[C@@H]1CCCc2ccccc21`, for which the activity change, negative = cytotoxicity is 1.28% (inactive).
`CC(NC(=O)C1CCCN(C(=O)c2ccc(Cl)cc2)C1)c1ccccc1` (stereo unspecified): the activity change, negative = cytotoxicity was 64.4% (inactive).
With `O=C(CCNC(=O)c1ccccc1Cl)NC1CCCc2ccccc21` (stereo unspecified), the activity change, negative = cytotoxicity is 10.9% (inactive).
On to `O=C(CCNC(=O)c1ccccc1)N[C@@H]1CCCc2ccccc21`, for which the activity change, negative = cytotoxicity is -39.6% (inactive).
The same measure, in the same setting: for `O=C(NC1CCOc2ccccc21)C1CCCN(C(=O)c2ccc(Cl)cc2)C1` (stereo unspecified) the value was -5.89% (inactive).
With `COc1ccccc1C(C)NC(=O)CCNC(=O)c1ccc(Cl)cc1` (stereo unspecified), the activity change, negative = cytotoxicity was -9.14% (inactive).
In the case of `O=C(CCNC(=O)c1ccc(Cl)cc1)NC1CCCCC1`, the activity change, negative = cytotoxicity is 13% (inactive).
For the compound `O=C(CNC(=O)c1ccc(C(F)(F)F)cc1)N[C@@H]1CCCc2ccccc21`, the activity change, negative = cytotoxicity was -8.54% (inactive).
Turning to `O=C(CCNC(=O)c1ccc(Cl)cc1)N[C@H]1CCCc2ccccc21`, the activity change, negative = cytotoxicity is -23.6% (inactive).
Still for that read-out and setting: in the case of `CN(C(=O)CCNC(=O)c1ccc(F)cc1F)C1CCCc2ccccc21` (stereo unspecified) it was 7.5% (inactive); in that of `O=C(CCCNC(=O)c1ccc(C(F)(F)F)cc1)N[C@@H]1CCCc2ccccc21`, 49.1% (inactive); in that of `COc1cc(C(=O)NCCC(=O)NC2CCCc3ccccc32)cc(OC)c1OC` (stereo unspecified), -40.5% (inactive).
For `CC(=O)NCCC(=O)N[C@@H]1CCCc2ccccc21`, the activity change, negative = cytotoxicity was 10.6% (inactive).
Consider `O=C(CCCNC(=O)c1ccc(OC(F)(F)F)cc1)N[C@@H]1CCCc2ccccc21`, for which the activity change, negative = cytotoxicity is 48.5% (inactive).
As for `O=C(CNC(=O)c1ccc(Cl)c(Cl)c1)N[C@@H]1CCCc2ccccc21`, the activity change, negative = cytotoxicity is -24.4% (inactive).
On to `COc1ccccc1C(=O)NCCC(=O)NC1CCCc2ccccc21` (stereo unspecified), for which the activity change, negative = cytotoxicity is -2.09% (inactive).
Still for that read-out and setting: in the case of `O=C(CNC(=O)c1ccc(Cl)cc1)N[C@@H]1CCCc2ccccc21` it was -4.76% (inactive); in that of `CC(CC(=O)NC1CCCc2ccccc21)NC(=O)c1ccccc1` (stereo unspecified), -38.5% (inactive); in that of `O=C(CCCNC(=O)c1ccc(Cl)c(Cl)c1)N[C@@H]1CCCc2ccccc21`, 8.38% (inactive).
For the compound `C[C@@H](NC(=O)CCNC(=O)c1ccc(Cl)cc1)c1ccccc1`, the activity change, negative = cytotoxicity is 19.9% (inactive).
On to `CC(C)(C)OC(=O)NCCC(=O)N[C@@H]1CCCc2ccccc21`, for which the activity change, negative = cytotoxicity is -2.95% (inactive).
Consider `CC(C)(C)OC(=O)NCCC(=O)N[C@H]1CCCc2ccccc21`, for which the activity change, negative = cytotoxicity was -17.3% (inactive).
As to `NCCC(=O)N[C@@H]1CCCc2ccccc21`, the activity change, negative = cytotoxicity was 27.3% (inactive).
As for `CC(CC(=O)N(C)C1CCCc2ccccc21)NC(=O)c1ccccc1` (stereo unspecified), the activity change, negative = cytotoxicity is -30% (inactive).
Consider `CC(c1ccccc1)N(C)C(=O)CCNC(=O)c1ccc(Cl)cc1` (stereo unspecified), for which the activity change, negative = cytotoxicity is -5.44% (inactive).
In the case of `CC(NC(=O)CCNC(=O)c1ccc(Cl)cc1)c1ccc2c(c1)OCO2` (stereo unspecified), the activity change, negative = cytotoxicity was 21.1% (inactive).
Take `O=C(NC1CCc2ccccc21)C1CCCN(C(=O)c2ccc(Cl)cc2)C1` (stereo unspecified): the activity change, negative = cytotoxicity was -34.8% (inactive).
Regarding `Cc1cccc(C(=O)NCCC(=O)NC2CCCc3ccccc32)c1` (stereo unspecified), the activity change, negative = cytotoxicity is -15.8% (inactive).

A further assay deals with HEK293T viability, ATP luminescence (CellTiter-Glo), 72 h. The assay is described as above.
Settings: not given
Turning to `O=C(CCNC(=O)c1ccc(Cl)cc1)NC1CCCc2ccccc21` (stereo unspecified), the AC50 was 7.73 µM.

The record behind these values is PubChem BioAssay AID743142 (Broad Institute, 2013).
